Earlier results in US6200602A, “Composition for enhanced uptake of polar drugs from the colon” (priority 1995, dated 2001).

Tests used:
[1] = oral / gastrointestinal tract
[2] = literature knowledge
[3] = absorption enhancer in the gastrointestinal tract
[4] = rat intestine; sodium caprate and sodium glycocholate as enhancers

absorption when dosed orally [1]	Molecule	other results
poor or erratic absorption	O=P(O)(O)C(Cl)(Cl)P(=O)(O)O [clodronate]	
poor or erratic absorption	CNC(=C[N+](=O)[O-])NCCSCc1ccc(CN(C)C)o1 [ranitidine]	
	CCCCCCCCCC(=O)[O-].[Na+] [sodium caprate]	absorption promoting effect [2]: can act as an absorption promoting agent
poor or erratic absorption	O=C(O)c1cc(=O)c2c(OCC(O)COc3cccc4oc(C(=O)O)cc(=O)c34)cccc2o1 [sodium cromoglycate]	
	C[C@H](CCC(=O)O)[C@H]1CC[C@H]2[C@@H]3CC[C@@H]4C[C@H](O)CC[C@]4(C)[C@H]3C[C@H](O)[C@]12C [sodium deoxycholate]	absorption promoting effect [2]: known to act as an absorption enhancer in the gastrointestinal tract; side effect and toxicity [3]: associated with potential side effect (diarrhoea) and toxicity
	insulin: polypeptide drug	preferred site for insulin absorption [4]: the ileum was the most preferred site for insulin absorption

Molecule	absorption when dosed orally [1]	other results
C[C@H](CS)C(=O)N1CCC[C@H]1C(=O)O [captopril]	poor or erratic absorption	
CN/C(=N/CCSCc1nc[nH]c1C)NC#N [cimetidine]	poor or erratic absorption	
